Converted amounts (≈) assume the structure as drawn.
Tests used:
C. jejuni 81–176 = experiment: Copper sulfate sensitivity dose–response assay in vitro (MIC/MBC); type: cell-based, Campylobacter jejuni; settings: for MBC / MIC: Campylobacter jejuni, 0.5 mM CuSO4, head displaced; for MBC: read-out: MBC, C. jejuni (Table S5); for MIC: read-out: MIC, C. jejuni (Table S4); for C. jejuni 81–176 in vitro MBC: minimal bactericidal concentration in presence of 0.5 mM CuSO4; for C. jejuni 81–176 in vitro MIC: minimal bacteriostatic concentration in presence of 0.5 mM CuSO4
Procedure: (§1) In total, 19 SMs were two-fold serially diluted to obtain a final SM concentration ranging from 6.25 to 0.012 μg/mL. C. jejuni 81–176 was then treated with a determined concentration of SM, as described in the copper sensitivity assay. […] The lowest bactericidal SM concentration was considered the MBC (no increase in OD600 over time and no viable cells were recovered on agar plate after challenge) (N = 3 replicates per SM). […] However, these SMs were two-fold serially diluted to obtain a final SM concentration ranging from 5 μg to 0.0625 μg for testing (N = two independent experiments with four technical replicate for each SM).

[1] = tested on: Campylobacter spp. (12 strains); experiment: Activity spectrum against Campylobacter strains at 6.25 μg/mL with 0.5 mM CuSO4; type: cell-based, Campylobacter jejuni, Campylobacter coli; settings: 6.25 μg/mL SM
[2] = tested on: Commensal/beneficial gut bacteria (n = 7); experiment: Activity spectrum against commensal/beneficial gut bacteria at 6.25 μg/mL; type: cell-based; settings: 6.25 μg/mL SM; for Commensal/beneficial gut bacteria inhibited at 6.25 μg/mL (species): Ef Enterococcus faecalis, Lb Levilactobacillus brevis, LGG Lacticaseibacillus rhamnosus GG
Procedure: A similar experiment was performed with seven commensal/beneficial gut bacteria to determine species specificity of these SMs. In brief, an overnight suspension was normalized at 0.05 OD600 using the appropriate medium and challenged with 6.25 μg/mL of SM. Details about the strains and their growing conditions are shown in Supplementary Table S1. Medium alone and 1% DMSO were used as controls (N = 3 replicates per SM).

C. jejuni Au-47 = experiment: Copper sulfate sensitivity dose–response assay in vitro (MIC/MBC); type: cell-based; settings: Campylobacter jejuni; for MIC: AU47, read-out: MIC, Au-47 (Table S4); for MBC: AU47, 0.5 mM CuSO4, read-out: MBC, Au-47 (Table S5)
Procedure: (§2) Campylobacter jejuni 81–176 was the primary model strain used for the selection of the potential Tat-dependent inhibitors by high-throughput screening. C. jejuni 81–176 is resistant to 0.5 and 1 mM CuSO4 (Supplementary Figure S1). C. jejuni 81–176 tatC knockout mutant (C. jejuni ΔtatC) was used to confirm the Tat-dependent inhibitory effect of the selected SM. C. jejuni ΔtatC is susceptible to 0.5 mM and higher of CuSO4 ([Rajashekara et al., 2009]). The specificity of the Tat-dependent inhibitors was also tested on 11 additional Campylobacter strains (C. coli ATCC33559 and 10 other C. jejuni strains isolated from chickens) and 7 commensal/beneficial bacteria (Supplementary Table S1). The […] (Au-13, Au-20, Au-38, Au-39, Au-47, Au-50, Au-24, Au-32, Au-44, and Au-45) were selected based on their single nucleotide polymorphism (SNP)-type and percent of prevalence in chickens ([Merchant-Patel et al., 2008]; [Kumar et al., 2016]). Additional details about the bacterial strains are shown in Supplementary Table S1.
as §1

C. jejuni Au-50 = experiment: as above; type: cell-based; settings: Campylobacter jejuni; for MIC: AU50, read-out: MIC, Au-50 (Table S4); for MBC: AU50, 0.5 mM CuSO4, read-out: MBC, Au-50 (Table S5)
Procedure: as §2, §1

C. jejuni Au-24 = experiment: as above; type: cell-based; settings: Campylobacter jejuni; for MIC: AU24, read-out: MIC, Au-24 (Table S4); for MBC: AU24, 0.5 mM CuSO4, read-out: MBC, Au-24 (Table S5)
Procedure: as §2, §1

C. jejuni Au-39 = experiment: as above; type: cell-based; settings: Campylobacter jejuni; for MIC: AU39, read-out: MIC, Au-39 (Table S4); for MBC: AU39, 0.5 mM CuSO4, read-out: MBC, Au-39 (Table S5)
Procedure: as §2, §1

C. jejuni Au-45 = experiment: as above; type: cell-based; settings: Campylobacter jejuni; for MIC: AU45, read-out: MIC, Au-45 (Table S4); for MBC: AU45, 0.5 mM CuSO4, read-out: MBC, Au-45 (Table S5)
Procedure: as §2, §1

C. jejuni Au-13 = experiment: as above; type: cell-based; settings: Campylobacter jejuni; for MIC: AU13, read-out: MIC, Au-13 (Table S4); for MBC: AU13, 0.5 mM CuSO4, read-out: MBC, Au-13 (Table S5)
Procedure: as §2, §1

C. jejuni Au-20 = experiment: as above; type: cell-based; settings: Campylobacter jejuni; for MIC: AU20, read-out: MIC, Au-20 (Table S4); for MBC: AU20, 0.5 mM CuSO4, read-out: MBC, Au-20 (Table S5)
Procedure: as §2, §1

C. jejuni Au-32 = experiment: as above; type: cell-based; settings: Campylobacter jejuni; for MIC: AU32, read-out: MIC, Au-32 (Table S4); for MBC: AU32, 0.5 mM CuSO4, read-out: MBC, Au-32 (Table S5)
Procedure: as §2, §1

C. jejuni Au-38 = experiment: as above; type: cell-based; settings: Campylobacter jejuni; for MIC: AU38, read-out: MIC, Au-38 (Table S4); for MBC: AU38, 0.5 mM CuSO4, read-out: MBC, Au-38 (Table S5)
Procedure: as §2, §1

C. coli ATCC33559 = experiment: as above; type: cell-based; settings: Campylobacter coli; for MIC: ATCC33559, read-out: MIC, C. coli (Table S4); for MBC: ATCC33559, 0.5 mM CuSO4, read-out: MBC, C. coli (Table S5)
Procedure: as §2, §1

C. jejuni Au-44 = experiment: as above; type: cell-based; settings: Campylobacter jejuni; for MIC: AU44, read-out: MIC, Au-44 (Table S4); for MBC: AU44, 0.5 mM CuSO4, read-out: MBC, Au-44 (Table S5)
Procedure: as §2, §1

[3] = tested on: intracellular C. jejuni 81–176 in Caco-2 cells; experiment: Copper sulfate sensitivity dose–response assay in infected Caco-2 colon epithelial cells; type: cell-based, Campylobacter jejuni; settings: infected Caco-2 cells, 24 h, 0.5 mM CuSO4
Procedure: The intracellular reduction in C. jejuni in the presence of a given SM (T1-T8) and 0.5 mM CuSO4 were evaluated using Caco-2 cells, as previously described ([Kumar et al., 2016]; [Deblais et al., 2019]). In brief, cells were infected for 2 h using a multiplicity of infection (MOI) of 100. Infected cells were treated with SM at a final concentration ranging between 5 and 0.315 μg/mL and incubated at 37°C for 24 h in a humidified 5% CO2 incubator. Following incubation, cells were washed once with 1X PBS, lysed with 0.1% Triton-100X, serially 10-fold diluted in 1X PBS, and plated on MH agar plate. Plates were incubated in microaerophilic conditions at 42°C for 24 h, to determine the intracellular survival. Cells not infected and not treated and cells infected and treated with 1% DMSO were used as controls (N = two independent experiments with four technical replicate for each SM).

FDH = settings: 1 mM of azide; ref Davies, 2017; cited from earlier work

Row | SMILES | MBC (C. jejuni 81–176) [µg/mL] | MIC (C. jejuni 81–176) [µg/mL] | C. jejuni 81–176 in vitro MBC (C. jejuni 81–176) [µg/mL] | C. jejuni 81–176 in vitro MIC (C. jejuni 81–176) [µg/mL] | Growth inhibition at 6.25 μg/mL, Campylobacter spp. (strains inhibited/tested) [1] | Growth inhibition at 6.25 μg/mL, Commensal/beneficial gut bacteria (strains inhibited/tested) [2] | MIC (C. jejuni Au-47) [µg/mL] | MBC (C. jejuni Au-47) [µg/mL] | MIC (C. jejuni Au-50) [µg/mL] | MBC (C. jejuni Au-50) [µg/mL] | MIC (C. jejuni Au-24) [µg/mL] | MBC (C. jejuni Au-24) [µg/mL] | MIC (C. jejuni Au-39) [µg/mL] | MBC (C. jejuni Au-39) [µg/mL] | MIC (C. jejuni Au-45) [µg/mL] | MBC (C. jejuni Au-45) [µg/mL] | MIC (C. jejuni Au-13) [µg/mL] | MBC (C. jejuni Au-13) [µg/mL] | MIC (C. jejuni Au-20) [µg/mL] | MBC (C. jejuni Au-20) [µg/mL] | also measured
1 | CCc1ccnc(NS(=O)(=O)c2ccc(C)c(Cl)c2)c1 [T4] | > 5 | 0.01 (≈ 0.0322 µM) | >5 | 0.01 | 12/12 | 1/7 | 0.62 (≈ 1.99 µM) | > 5 | 0.31 (≈ 0.997 µM) | > 5 | 6.25 (≈ 20.1 µM) | > 5 | 6.25 (≈ 20.1 µM) | > 5 | 6.25 (≈ 20.1 µM) | > 5 | 0.62 (≈ 1.99 µM) | > 5 | 0.62 (≈ 1.99 µM) | > 5 | Commensal/beneficial gut bacteria inhibited at 6.25 μg/mL (species) [2]: Ef; MIC (C. jejuni Au-32): 6.25 µg/mL (≈ 20.1 µM); MBC (C. jejuni Au-32): > 5 µg/mL; MIC (C. jejuni Au-38): 6.25 µg/mL (≈ 20.1 µM); MBC (C. jejuni Au-38): > 5 µg/mL; MIC (C. coli ATCC33559): 6.25 µg/mL (≈ 20.1 µM); MBC (C. coli ATCC33559): > 5 µg/mL; MIC (C. jejuni Au-44): 6.25 µg/mL (≈ 20.1 µM); MBC (C. jejuni Au-44): > 5 µg/mL
2 | CN(C)c1ccc(C(=O)Nc2ccc(CN3CCS(=O)(=O)CC3)cc2)cc1 [T3] | > 5 | 0.04 (≈ 0.103 µM) | >5 | 0.04 | 12/12 | 2/7 | 6.25 (≈ 16.1 µM) | > 5 | 6.25 (≈ 16.1 µM) | > 5 | 6.25 (≈ 16.1 µM) | > 5 | 6.25 (≈ 16.1 µM) | > 5 | 6.25 (≈ 16.1 µM) | > 5 | 6.25 (≈ 16.1 µM) | > 5 | 6.25 (≈ 16.1 µM) | > 5 | Commensal/beneficial gut bacteria inhibited at 6.25 μg/mL (species) [2]: LGG and Ef; MIC (C. jejuni Au-32): 6.25 µg/mL (≈ 16.1 µM); MBC (C. jejuni Au-32): > 5 µg/mL; MIC (C. jejuni Au-38): 6.25 µg/mL (≈ 16.1 µM); MBC (C. jejuni Au-38): > 5 µg/mL; MIC (C. coli ATCC33559): 1 µg/mL (≈ 2.58 µM); MBC (C. coli ATCC33559): > 5 µg/mL; MIC (C. jejuni Au-44): 6.25 µg/mL (≈ 16.1 µM); MBC (C. jejuni Au-44): > 5 µg/mL; C. jejuni 81–176 MBC in Caco2 cells [3]: 5 µg/mL
3 | [N-]=[N+]=[N-] [azide] |  |  |  |  |  |  |  |  |  |  |  |  |  |  |  |  |  |  |  |  | inhibition of FDH activity (FDH): 30%
4 | CC(C)n1c(S)nc2c1c(=O)[nH]c(=O)n2C [T6] | 2.5 (≈ 10.4 µM) | 1.25 (≈ 5.2 µM) | 2.5 | 1.25 | 12/12 | 0/7 | 1.25 (≈ 5.2 µM) | 2.5 (≈ 10.4 µM) | 1.25 (≈ 5.2 µM) | 2.5 (≈ 10.4 µM) | 1.25 (≈ 5.2 µM) | 2.5 (≈ 10.4 µM) | 1.25 (≈ 5.2 µM) | 2.5 (≈ 10.4 µM) | 1.25 (≈ 5.2 µM) | 2.5 (≈ 10.4 µM) | 1.25 (≈ 5.2 µM) | 2.5 (≈ 10.4 µM) | 1.25 (≈ 5.2 µM) | 2.5 (≈ 10.4 µM) | MIC (C. jejuni Au-32): 1.25 µg/mL (≈ 5.2 µM); MBC (C. jejuni Au-32): 2.5 µg/mL (≈ 10.4 µM); MIC (C. jejuni Au-38): 1.25 µg/mL (≈ 5.2 µM); MBC (C. jejuni Au-38): 2.5 µg/mL (≈ 10.4 µM); MIC (C. coli ATCC33559): 1.25 µg/mL (≈ 5.2 µM); MBC (C. coli ATCC33559): 2.5 µg/mL (≈ 10.4 µM); MIC (C. jejuni Au-44): 1.25 µg/mL (≈ 5.2 µM); MBC (C. jejuni Au-44): 2.5 µg/mL (≈ 10.4 µM)
5 | CCOC(=O)C1CCN(CC(=O)Nc2cccc3cccnc23)CC1 [T5] | 0.04 (≈ 0.117 µM) | 0.01 (≈ 0.0293 µM) | 0.04 | 0.01 | 12/12 | 1/7 | 2.5 (≈ 7.32 µM) | 5 (≈ 14.6 µM) | 5 (≈ 14.6 µM) | > 5 | 2.5 (≈ 7.32 µM) | 5 (≈ 14.6 µM) | 5 (≈ 14.6 µM) | > 5 | 5 (≈ 14.6 µM) | > 5 | 0.62 (≈ 1.82 µM) | 1.24 (≈ 3.63 µM) | 2.5 (≈ 7.32 µM) | 5 (≈ 14.6 µM) | Commensal/beneficial gut bacteria inhibited at 6.25 μg/mL (species) [2]: Ef; MIC (C. jejuni Au-32): 5 µg/mL (≈ 14.6 µM); MBC (C. jejuni Au-32): > 5 µg/mL; MIC (C. jejuni Au-38): 2.5 µg/mL (≈ 7.32 µM); MBC (C. jejuni Au-38): 5 µg/mL (≈ 14.6 µM); MIC (C. coli ATCC33559): 0.02 µg/mL (≈ 0.0586 µM); MBC (C. coli ATCC33559): 0.04 µg/mL (≈ 0.117 µM); MIC (C. jejuni Au-44): 2.5 µg/mL (≈ 7.32 µM); MBC (C. jejuni Au-44): 5 µg/mL (≈ 14.6 µM)

— publication PMC11061419, “Identification of novel small molecule inhibitors of twin arginine translocation (Tat) pathway and their effect on the control of Campylobacter jejuni in chickens” (Frontiers in Microbiology, 2024)
